Measurements as given in patent US11186590B2, “Somatostatin modulators and uses thereof” (CRINETICS PHARMACEUTICALS, INC., priority 2018, dated 2021).

target: hSSTR4 (Homo sapiens (Human), UniProt P31391); assay: selectivity for inhibition of cAMP via hSSTR2 vs. hSSTR4; assay type: cell-based; conditions: Table B
Description: General overview: All five SSTR subtypes are Gi coupled G-protein coupled receptors (GPCRs) that lead to decreases in intracellular cyclic AMP (cAMP) when activated by an agonist. Therefore, measurement of intracellular cAMP levels can be used to assess whether compounds of the invention are agonists of SSTR subtypes (John Kelly, Troy Stevens, W. Joseph Thompson, and Roland Seifert, Current Protocols in Pharmacology, 2005, 2.2.1-2.2). One example of an intracellular cAMP assay is described below.
Four days prior to the assay, 5,000 Chinese hamster ovary cells (CHO-K1, ATCC #CCL-61) stably expressing the human somatostatin receptor subtype 2 are plated in each well of a 96-well tissue culture-treated plate in Ham's F12 growth media (ThermoFisher #10-080-CM) supplemented with 10% donor bovine serum (Gemini Bio-Products #100-506), 100 U/mL penicillin; 100 ug/mL streptomycin; 2 mM L-glutamine (Gemini Bio-Products #400-110) and 0.2 mg/mL hygromycin B (GoldBio #31282-04-9). The cells are cultured at 37° C., 5% CO2 and 95% humidity. On the day of the assay, the media is aspirated and the cells are treated with 50 μL of 1.6 μM NKH477 (Sigma #N3290) plus various dilutions of compounds of the invention in assay buffer [1× Hank's Balanced Salt Solution (ThermoFisher #SH3058802), 0.5 mM HEPES pH 7.4, 0.1% bovine serum albumin, 0.2 mM 3-Isobutyl-1-methylxanthine (IBMX, VWR #200002-790)]. The cells are incubated for 20 minutes at 37° C. (the final concentration of the compounds of the invention are typically 0-10,000 nM). The cells are treated with 50 μL of lysis buffer (HRTF cAMP kit, Cisbio). The lysate is transferred to 384-well plates and cAMP detection and visualization antibodies are added and incubated for 1-24 hours at room temperature. The time-resolved fluorescent signal is read with a Tecan M1000Pro multiplate reader. The intracellular cAMP concentrations are calculated by regression to a standard curve and are plotted vs. the concentration of the compounds of the invention and the EC50 of the compounds are calculated using standard methods. All data manipulations are in GraphPad Prism v6.

Sequence of hSSTR4 (P31391 whole entry): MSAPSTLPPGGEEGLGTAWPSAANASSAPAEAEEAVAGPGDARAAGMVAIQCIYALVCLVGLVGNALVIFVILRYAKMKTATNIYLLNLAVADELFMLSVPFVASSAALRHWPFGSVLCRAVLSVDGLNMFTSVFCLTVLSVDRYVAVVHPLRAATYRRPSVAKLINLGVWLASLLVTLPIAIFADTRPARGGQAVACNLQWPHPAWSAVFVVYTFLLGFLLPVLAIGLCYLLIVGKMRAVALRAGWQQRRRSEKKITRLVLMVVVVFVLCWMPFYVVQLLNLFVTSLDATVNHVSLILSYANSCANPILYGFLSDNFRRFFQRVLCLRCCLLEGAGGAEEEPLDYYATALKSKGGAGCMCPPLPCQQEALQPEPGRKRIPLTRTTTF

| Structure (SMILES) | hSST4/hSST2 (ratio) |
| --- | --- |
| COc1cc(F)cc2nc(-c3c(C(N)=O)ncc(-c4cc(C)cc(F)c4)c3N3CCC(N)CC3)[nH]c12 [Compound 2-3, 4-(4-aminopiperidin-1-yl)-3-(6-fluoro-4-methoxy-1H-1,3-benzodiazol-2-yl)-5-(3-fluoro-5-methylphenyl)pyridine-2-carboxamide] | b (b = between 15 and 50) |
| COC(=O)c1ncc(-c2cc(C)cc(F)c2)c(N2CCC(N)CC2)c1-c1nc2cc(F)cc(OC)c2[nH]1 [Compound 2-1, methyl 4-(4-aminopiperidin-1-yl)-3-(6-fluoro-4-methoxy-1H-1,3-benzodiazol-2-yl)-5-(3-fluoro-5-methylphenyl)pyridine-2-carboxylate] | d (d = between 1 and 2.5) |
| COc1cc(C#N)cc2[nH]c(-c3c(N)ncc(-c4cc(C)cc(F)c4)c3N3CCC(N)CC3)nc12 [Compound 1-1, 2-[2-amino-4-(4-aminopiperidin-1-yl)-5-(3-fluoro-5-methylphenyl)pyridin-3-yl]-4-methoxy-1H-1,3-benzodiazole-6-carbonitrile] | a (a = above 50) |
| COc1cc(F)cc2nc(-c3c(C#N)ncc(-c4cc(C)cc(F)c4)c3N3CCC(N)CC3)[nH]c12 [Compound 2-2, 4-(4-aminopiperidin-1-yl)-3-(6-fluoro-4-methoxy-1H-1,3-benzodiazol-2-yl)-5-(3-fluoro-5-methylphenyl)pyridine-2-carbonitrile] | e (e = between 1 and 0.5) |

same assay, conditions: Table C

| Structure (SMILES) | hSST4/hSST2 (ratio) |
| --- | --- |
| COc1cc(C#N)cc2[nH]c(-c3c(N)ncc(-c4cc(F)cc(F)c4)c3N3CC[C@@H]4NCCO[C@H]4C3)nc12 [Compound 3-18, 2-{4-[(4αS,8αS)-octahydro-1H-pyrido[3,4-b][1,4]oxazin-6-yl]-2-amino-5-(3,5-difluorophenyl)pyridin-3-yl}-4-methoxy-1H-1,3-benzodiazole-6-carbonitrile] | b (b = between 15 and 50) |
| CNc1ncc(-c2cc(F)cc(Cl)c2)c(N2CC[C@@H]3NCCO[C@H]3C2)c1-c1nc2c(OC)cc(F)cc2[nH]1 [Compound 3-13, 4-[(4αS,8αS)-octahydro-1H-pyrido[3,4-b][1,4]oxazin-6-yl]-5-(3-chloro-5-fluorophenyl)-3-(6-fluoro-4-methoxy-1H-1,3-benzodiazol-2-yl)-N-methylpyridin-2-amine] | a (a = above 50) |
| N#Cc1cc(F)c2nc(-c3c(N)ncc(-c4cc(F)cc(F)c4)c3N3CC[C@@H]4OCCN[C@H]4C3)[nH]c2c1 [Compound 3-19, 2-{4-[(4αS,8αS)-octahydro-1H-pyrido[3,4-b][1,4]oxazin-6-yl]-2-amino-5-(3,5-difluorophenyl)pyridin-3-yl}-4-fluoro-1H-1,3-benzodiazole-6-carbonitrile] | b (b = between 15 and 50) |
| COc1cc(C#N)cc2[nH]c(-c3c(N)ncc(-c4cccc(F)c4)c3N3CC[C@@H]4NCCO[C@H]4C3)nc12 [Compound 3-11, 2-{4-[(4αS,8αS)-octahydro-1H-pyrido[3,4-b][1,4]oxazin-6-yl]-2-amino-5-(3-fluorophenyl)pyridin-3-yl}-4-methoxy-1H-1,3-benzodiazole-6-carbonitrile] | a (a = above 50) |
| COc1cc(F)cc2[nH]c(-c3c(N)ncc(-c4cccc(F)c4)c3N3CC[C@@H]4NCCO[C@H]4C3)nc12 [Compound 3-9, 4-[(4αS,8αS)-octahydro-1H-pyrido[3,4-b][1,4]oxazin-6-yl]-3-(6-fluoro-4-methoxy-1H-1,3-benzodiazol-2-yl)-5-(3-fluorophenyl)pyridin-2-amine] | c (c = between 2.5 and 15) |
| CNc1ncc(-c2cccc(F)c2)c(N2CC[C@@H]3NCCO[C@H]3C2)c1-c1nc2c(OC)cc(C#N)cc2[nH]1 [Compound 3-12, 2-[4-[(4αS,8αS)-octahydro-1H-pyrido[3,4-b][1,4]oxazin-6-yl]-5-(3-fluorophenyl)-2-(methylamino)pyridin-3-yl]-4-methoxy-1H-1,3-benzodiazole-6-carbonitrile] | a (a = above 50) |
| Nc1ncc(-c2cccc(F)c2)c(N2CC[C@@H]3NCCO[C@H]3C2)c1-c1nc2c(F)cc(F)cc2[nH]1 [Compound 3-3, 4-[(4αS,8αS)-octahydro-1H-pyrido[3,4-b][1,4]oxazin-6-yl]-3-(4,6-difluoro-1H-1,3-benzodiazol-2-yl)-5-(3-fluorophenyl)pyridin-2-amine] | c (c = between 2.5 and 15) |
| CNc1ncc(-c2cccc(F)c2)c(N2CC[C@@H]3NCCO[C@H]3C2)c1-c1nc2c(OC)cc(F)cc2[nH]1 [Compound 3-10, 4-[(4αS,8αS)-octahydro-1H-pyrido[3,4-b][1,4]oxazin-6-yl]-3-(6-fluoro-4-methoxy-1H-1,3-benzodiazol-2-yl)-5-(3-fluorophenyl)-N-methylpyridin-2-amine] | a (a = above 50) |
| COc1cc(F)cc2[nH]c(-c3c(N)ncc(-c4cc(F)cc(Cl)c4)c3N3CC[C@@H]4OCCN[C@H]4C3)nc12 [Compound 3-17, 4-[(4αS,8αS)-octahydro-1H-pyrido[3,4-b][1,4]oxazin-6-yl]-5-(3-chloro-5-fluorophenyl)-3-(6-fluoro-4-methoxy-1H-1,3-benzodiazol-2-yl)pyridin-2-amine] | c (c = between 2.5 and 15) |

test system: not listed separately; assay: Liver microsomal stability assay; assay type: in vitro ADME; conditions: human liver microsomes, 0.5 mg/mL protein, 37° C.
Method: The in vitro stabilities of compounds of interest were determined for various species using pooled male and female human, pooled male Sprague-Dawley rat, pooled male Cynomolgus monkey, and pooled male Beagle dog liver microsomes at microsomal protein concentrations of 0.5 mg/mL. Incubations were carried out in a potassium phosphate buffer (50 mM). The NADPH-generating system was composed of NADP+ (1 mM), magnesium chloride (3 mM), EDTA (1 mM), glucose-6-phosphate (5 mM) and glucose-6-phosphate dehydrogenase (1 Unit/mL) for all experiments. Compounds of interest in DMSO were added to achieve a final incubation concentration of […] (final DMSO content was 0.1% v/v and final acetonitrile content was 0.9%). The final incubation volume was 400 μL. Incubations were conducted at 37° C. for 0, 5, 10, 20, 40 and 60 minutes in a shaking water bath and terminated by removing 50 µL of incubation mixture and adding to 100 μL of ice cold acetonitrile containing internal standard. Following precipitation by centrifugation at 3500 rpm and 4° C. for 30 minutes, compounds of interest and internal standard were analyzed in the resultant supernatant using a multiple reaction monitoring (MRM) LC-MS/MS method. MS conditions were optimized for each analyte.
The following Table (Table D) illustrates human liver microsomal stability of exemplary compounds.

| Structure (SMILES) | HLM t1/2 |
| --- | --- |
| COc1cc(C#N)cc2[nH]c(-c3c(N)ncc(-c4cc(F)cc(F)c4)c3N3CC[C@@H]4NCCO[C@H]4C3)nc12 [Compound 3-18, 2-{4-[(4αS,8αS)-octahydro-1H-pyrido[3,4-b][1,4]oxazin-6-yl]-2-amino-5-(3,5-difluorophenyl)pyridin-3-yl}-4-methoxy-1H-1,3-benzodiazole-6-carbonitrile] | 1.65 h |
